Test results: patent US20110212968A1, “PHENETHYLAMIDE DERIVATIVES AND THEIR HETEROCYCLIC ANALOGUES” (priority 2008, published 2011)
pIC50: −log10 of the molar value.

Experiments:
human orexin-1 receptor = biological target: T1, human orexin-1 receptor (Homo sapiens, UniProt O43613); assay: Intracellular calcium measurement (FLIPR Tetra), orexin receptor antagonistic activity, OX1; assay type: cell-based; conditions: CHO cells expressing human orexin-1 receptor, 3 nM orexin-A
T1 construct: expressed in transfected cells; host or cells: CHO (Chinese hamster ovary) cells, kept under G418 selection
T1 sequence (O43613 1-425): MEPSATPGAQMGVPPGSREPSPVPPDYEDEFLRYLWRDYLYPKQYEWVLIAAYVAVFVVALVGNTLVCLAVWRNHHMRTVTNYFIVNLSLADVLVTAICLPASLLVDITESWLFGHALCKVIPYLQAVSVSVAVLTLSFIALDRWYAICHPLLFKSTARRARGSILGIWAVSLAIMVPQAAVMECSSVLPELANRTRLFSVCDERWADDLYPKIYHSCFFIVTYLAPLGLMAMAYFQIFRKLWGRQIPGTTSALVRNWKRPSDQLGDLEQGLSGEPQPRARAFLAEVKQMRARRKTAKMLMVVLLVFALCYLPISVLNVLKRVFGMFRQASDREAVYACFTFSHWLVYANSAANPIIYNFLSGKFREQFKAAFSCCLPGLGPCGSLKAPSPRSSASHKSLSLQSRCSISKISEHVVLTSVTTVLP
Method in brief: (§1)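 Recombinant CHO cells expressing human OX1 or OX2, loaded with fluo-4 AM plus probenecid, were preincubated with antagonist 10 min, then stimulated with 3 nM human orexin-A. Peak fluorescence was compared with vehicle; IC50 derived, sometimes normalized to an on-plate reference compound; two pipetting/cell-splitting conditions were used.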

human orexin-2 receptor = biological target: T2, human orexin-2 receptor (Homo sapiens, UniProt O43614); assay: Intracellular calcium measurement (FLIPR Tetra), orexin receptor antagonistic activity, OX2; assay type: cell-based; conditions: CHO cells expressing human orexin-2 receptor, 3 nM orexin-A
T2 construct: expressed in transfected cells; host or cells: CHO (Chinese hamster ovary) cells, kept under G418 selection
T2 sequence (O43614 1-444): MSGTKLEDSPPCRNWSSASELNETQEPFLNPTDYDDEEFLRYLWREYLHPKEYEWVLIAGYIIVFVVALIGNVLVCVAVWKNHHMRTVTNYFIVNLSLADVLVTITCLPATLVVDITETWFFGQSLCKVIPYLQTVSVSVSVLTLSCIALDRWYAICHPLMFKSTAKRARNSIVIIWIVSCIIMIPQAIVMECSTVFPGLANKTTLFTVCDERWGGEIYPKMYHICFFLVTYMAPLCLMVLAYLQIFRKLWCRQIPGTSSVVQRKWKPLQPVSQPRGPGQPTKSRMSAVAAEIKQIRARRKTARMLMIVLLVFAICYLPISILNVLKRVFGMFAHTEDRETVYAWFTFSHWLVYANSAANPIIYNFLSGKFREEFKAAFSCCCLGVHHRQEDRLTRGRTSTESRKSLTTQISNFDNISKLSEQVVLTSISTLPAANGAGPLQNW
Method in brief: as §1

[1] = conditions B, normalized (*) using IC50 of on-plate reference compound

Structure (SMILES)	pIC50 (human orexin-1 receptor; [1])	pIC50 (human orexin-2 receptor; [1])	further results
COC(=O)CN(CCc1c[nH]c2ccc(F)cc12)C(=O)c1nccnc1-c1ccccc1 [Example 286, [[2-(5-Fluoro-1H-indol-3-yl)-ethyl]-(3-phenyl-pyrazine-2-carbonyl)-amino]-acetic acid methyl ester]	5.56	6.49	
COc1ccc(CCN(CC2CC2)C(=O)c2nc(N(C)C)sc2-c2cccc(C)c2)cc1OC [Example 30, 2-Dimethylamino-5-m-tolyl-thiazole-4-carboxylic acid cyclopropylmethyl-[2-(3,4-dimethoxy-phenyl)-ethyl]-amide]			pIC50 (human orexin-1 receptor; conditions A): 6.69; pIC50 (human orexin-2 receptor; conditions A): 7.52
CCC(Cc1ccc(OC)c(OC)c1)N(CC1CC1)C(=O)c1nc(N)sc1-c1cccc(C)c1 (stereo not drawn) [Example 169, 2-Amino-5-m-tolyl-thiazole-4-carboxylic acid cyclopropylmethyl-[1-(3,4-dimethoxy-benzyl)-propyl]-amide]			pIC50 (human orexin-1 receptor; conditions B): 7.60; pIC50 (human orexin-2 receptor; conditions B): 7.57
COc1ccc(CCN(CC2CC2)C(=O)c2nc(N)sc2-c2cccc(C)c2)cc1SC [Example 161, 2-Amino-5-m-tolyl-thiazole-4-carboxylic acid cyclopropylmethyl-[2-(4-methoxy-3-methylsulfanyl-phenyl)-ethyl]-amide]			pIC50 (human orexin-1 receptor; conditions B): 8.00; pIC50 (human orexin-2 receptor; conditions B): 8.22
Cc1nc(-c2ccc(Cl)cc2)c(C(=O)N(CCc2c[nH]c3ccc(F)cc23)CC2CC2)s1 [Example 262, 4-(4-Chloro-phenyl)-2-methyl-thiazole-5-carboxylic acid cyclopropylmethyl-[2-(5-fluoro-1H-indol-3-yl)-ethyl]-amide]	5.04	6.33	
COc1ccc(-c2sc(C)nc2C(=O)N(CCc2c[nH]c3ccc(F)cc23)CC(=O)N(C)C)cn1 [Example 303, 5-(6-Methoxy-pyridin-3-yl)-2-methyl-thiazole-4-carboxylic acid dimethylcarbamoylmethyl-[2-(5-fluoro-1H-indol-3-yl)-ethyl]-amide]	5.63	6.26	
COc1ccc(C(O)CN(CC2CC2)C(=O)c2nccnc2-c2ccccc2)cc1OC (stereo not drawn) [Example 99, 3-Phenyl-pyrazine-2-carboxylic acid cyclopropylmethyl-[2-(3,4-dimethoxy-phenyl)-2-hydroxy-ethyl]-amide]			pIC50 (human orexin-1 receptor; conditions A): < 5.00; pIC50 (human orexin-2 receptor; conditions A): 7.39
COc1cccc(-c2oc(C)nc2C(=O)N(CCc2ccc(OC)c(OC)c2)CC2CC2)c1 [Example 42, 5-(3-Methoxy-phenyl)-2-methyl-oxazole-4-carboxylic acid cyclopropylmethyl-[2-(3,4-dimethoxy-phenyl)-ethyl]-amide]			pIC50 (human orexin-1 receptor; conditions A): 6.00; pIC50 (human orexin-2 receptor; conditions A): 7.70
COc1ccc(CCN(C)C(=O)c2nc(N)sc2-c2cccc(C)c2)cc1OC [Example 104, 2-Amino-5-m-tolyl-thiazole-4-carboxylic acid [2-(3,4-dimethoxy-phenyl)-ethyl]-methyl-amide]			pIC50 (human orexin-1 receptor; conditions B): 6.39; pIC50 (human orexin-2 receptor; conditions B): 8.30
CCN(CCc1ccc(OC)c(OC)c1)C(=O)c1nc(N)sc1-c1cccc(C)c1 [Example 107, 2-Amino-5-m-tolyl-thiazole-4-carboxylic acid [2-(3,4-dimethoxy-phenyl)-ethyl]-ethyl-amide]			pIC50 (human orexin-1 receptor; conditions B): 7.39; pIC50 (human orexin-2 receptor; conditions B): 8.70
Cc1ccc(-c2nccnc2C(=O)N(CCc2c[nH]c3c(C)cccc23)CC2CC2)cc1C [Example 337, 3-(3,4-Dimethyl-phenyl)-pyrazine-2-carboxylic acid cyclopropylmethyl-[2-(7-methyl-1H-indol-3-yl)-ethyl]-amide]	7.80	8.30	
COc1ccc2[nH]cc(CC(C)N(CC3CC3)C(=O)c3nc(C)sc3-c3ccc(OC)nc3)c2c1 (racemic) [Example 385]	7.64	7.60	
O=C(c1nccnc1-c1ccccc1)N(CCO)CCc1c[nH]c2ccc(F)cc12 [Example 289, 3-Phenyl-pyrazine-2-carboxylic acid [2-(5-fluoro-1H-indol-3-yl)-ethyl]-(2-hydroxy-ethyl)-amide]	< 5.37	6.20	
COc1ccc(C(O)CN(CC2CC2)C(=O)c2nc(N(C)C)sc2-c2cccc(C)c2)cc1OC (stereo not drawn) [Example 79, 2-Dimethylamino-5-m-tolyl-thiazole-4-carboxylic acid cyclopropylmethyl-[2-(3,4-dimethoxy-phenyl)-2-hydroxy-ethyl]-amide]			pIC50 (human orexin-1 receptor; conditions A): 6.56; pIC50 (human orexin-2 receptor; conditions A): 6.80
COc1ccc(CCN(CC2CC2)C(=O)c2ncccc2-c2cccc(C)c2)cc1OC [Example 390, 3-m-Tolyl-pyridine-2-carboxylic acid cyclopropylmethyl-[2-(3,4-dimethoxy-phenyl)-ethyl]-amide]			pIC50 (human orexin-1 receptor; conditions B): 6.74; pIC50 (human orexin-2 receptor; conditions B): 8.40
Cc1cccc(-c2sc(N)nc2C(=O)N(CCc2csc(N)n2)CC2CC2)c1 [Example 177, 2-Amino-5-m-tolyl-thiazole-4-carboxylic acid [2-(2-amino-thiazol-4-yl)-ethyl]-cyclopropylmethyl-amide]			pIC50 (human orexin-1 receptor; conditions B): < 5.00; pIC50 (human orexin-2 receptor; conditions B): 6.02
COc1ccc2[nH]cc(CCN(CC3CC3)C(=O)c3nccnc3-c3ccccc3)c2c1 [Example 322, 3-Phenyl-pyrazine-2-carboxylic acid cyclopropylmethyl-[2-(5-methoxy-1H-indol-3-yl)-ethyl]-amide]	6.72	7.62	
CCCN(CCc1c[nH]c2ccc(F)cc12)C(=O)c1ncccc1-c1ccc(OC)nc1 [Example 311]	6.83	7.80	
COc1ccc(CCN(CC2CC2)C(=O)c2ncccc2-c2ccc(C)cc2)cc1OC [Example 391]			pIC50 (human orexin-1 receptor; conditions B): 6.41; pIC50 (human orexin-2 receptor; conditions B): 8.40

More lines, main results first:

pIC50 (human orexin-1 receptor; [1])	pIC50 (human orexin-2 receptor; [1])	Structure (SMILES)	further results
6.15	7.14	Cc1cncc(-c2cccnc2C(=O)N(CCc2c[nH]c3ccc(F)cc23)CC2CC2)c1 [Example 402, 5′-Methyl-[3,3′]bipyridinyl-2-carboxylic acid cyclopropylmethyl-[2-(5-fluoro-1H-indol-3-yl)-ethyl]-amide]	
6.59	6.72	CCN(C)c1nc(C(=O)N(CCc2c[nH]c3ccccc23)CC2CC2)c(-c2ccccc2F)s1 [Example 500, 2-(Ethyl-methyl-amino)-5-(2-fluoro-phenyl)-thiazole-4-carboxylic acid cyclopropylmethyl-[2-(1H-indol-3-yl)-ethyl]-amide]	
6.55	6.62	Cc1cccc(-c2sc(CN)nc2C(=O)N(CCc2c[nH]c3ccc(F)cc23)CC2CC2)c1 [Example 433, 2-Aminomethyl-5-m-tolyl-thiazole-4-carboxylic acid cyclopropylmethyl-[2-(5-fluoro-1H-indol-3-yl)-ethyl]-amide]	
5.44	6.84	COc1ccc(-c2sc(C)nc2C(=O)N(CCc2c[nH]c3ccc(F)cc23)CC2CC2)cc1C [Example 410, 5-(4-Methoxy-3-methyl-phenyl)-2-methyl-thiazole-4-carboxylic acid cyclopropylmethyl-[2-(5-fluoro-1H-indol-3-yl)-ethyl]-amide]	
7.37	8.52	COc1ccc(-c2nccnc2C(=O)N(CCc2c[nH]c3c(C)cccc23)CC2CC2)cn1 [Example 437, 3-(6-Methoxy-pyridin-3-yl)-pyrazine-2-carboxylic acid cyclopropylmethyl-[2-(7-methyl-1H-indol-3-yl)-ethyl]-amide]	
5.94	6.89	Cc1cccc(-c2ncncc2C(=O)N(CCc2c[nH]c3ccccc23)CC(F)(F)F)c1 [Example 549, 4-m-Tolyl-pyrimidine-5-carboxylic acid [2-(1H-indol-3-yl)-ethyl]-(2,2,2-trifluoro-ethyl)-amide]	
7.47	8.40	COc1ccc(-c2sc(C)nc2C(=O)N(CCc2c[nH]c3ccc(F)cc23)CC2CC2)cn1 [Example 421, 5-(6-Methoxy-pyridin-3-yl)-2-methyl-thiazole-4-carboxylic acid cyclopropylmethyl-[2-(5-fluoro-1H-indol-3-yl)-ethyl]-amide]	
7.08	7.74	Cc1nc(C(=O)N(CCc2c[nH]c3ccc(F)cc23)CC2CC2)c(-c2cnc3ccccc3c2)s1 [Example 428, 2-Methyl-5-quinolin-3-yl-thiazole-4-carboxylic acid cyclopropylmethyl-[2-(5-fluoro-1H-indol-3-yl)-ethyl]-amide]	
